Data as given in ChEMBL document CHEMBL1201862, “PubChem BioAssay data set” (2004).
One block for each compound: values may come before it. Activity calls are given as the source filed them.

Experiments:
Albumin = Albumin (Bos taurus, UniProt P02769); test: Counterscreen for inhibitors of T-cell receptor (TCR)-CD3 interaction: Fluorescence-based biochemical high throughput dose response assay to identify inhibitors of T-cell receptor (TCR)-CD3 interaction using a TAMRA-labeled BSA probe.; format: functional
[1] = molecular target: T1, Carboxy-terminal domain RNA polymerase II polypeptide A small phosphatase 1 (Homo sapiens, UniProt Q9GZU7); test: CTDSP1 inhibitors, concentration-response, biochemical, absorbance readout, ultra-high-throughput screen actives (AID 540297); format: functional
T1 sequence (Q9GZU7 whole entry): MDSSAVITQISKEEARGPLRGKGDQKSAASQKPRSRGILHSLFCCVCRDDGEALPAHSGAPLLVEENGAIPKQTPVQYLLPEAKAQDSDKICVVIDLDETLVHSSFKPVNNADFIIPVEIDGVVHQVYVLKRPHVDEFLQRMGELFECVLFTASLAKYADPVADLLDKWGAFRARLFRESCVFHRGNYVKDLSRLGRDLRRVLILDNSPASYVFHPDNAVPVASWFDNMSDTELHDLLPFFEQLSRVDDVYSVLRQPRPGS

Caspase-6 = molecular target: T2, Caspase-6 (Homo sapiens, UniProt P55212); test: inhibition of CASP6 peptide cleavage – biochemical, VEID-R110 fluorescence, cherry-pick, dose response (AID 720632)
T2 sequence (P55212 whole entry): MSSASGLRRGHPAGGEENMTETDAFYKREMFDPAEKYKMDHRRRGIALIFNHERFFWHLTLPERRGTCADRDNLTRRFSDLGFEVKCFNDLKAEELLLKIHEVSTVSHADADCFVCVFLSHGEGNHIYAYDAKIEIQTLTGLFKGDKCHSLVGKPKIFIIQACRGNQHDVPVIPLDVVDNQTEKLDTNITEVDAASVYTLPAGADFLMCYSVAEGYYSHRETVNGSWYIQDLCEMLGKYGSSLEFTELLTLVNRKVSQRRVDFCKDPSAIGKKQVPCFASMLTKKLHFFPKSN

[2] = Dd2 parasite growth inhibition in erythrocytes – SYBR Green, dry powder samples, set 9, dose response (AID 1159568); format: functional, cell-based
HEK293 = test: cells; format: functional, cell-based; details: Homo sapiens
[3] = molecular target: T3, Nuclear receptor subfamily 0 group B member 1 (Homo sapiens, UniProt P51843); test: Luminescence-based cell-based high throughput dose response assay for inhibitors of the orphan nuclear receptor subfamily 0, group B, member 1 (DAX1; NR0B1). [Related pubchem assays (depositor defined):AID504766, AID504790]; format: functional
T3 sequence (P51843 whole entry): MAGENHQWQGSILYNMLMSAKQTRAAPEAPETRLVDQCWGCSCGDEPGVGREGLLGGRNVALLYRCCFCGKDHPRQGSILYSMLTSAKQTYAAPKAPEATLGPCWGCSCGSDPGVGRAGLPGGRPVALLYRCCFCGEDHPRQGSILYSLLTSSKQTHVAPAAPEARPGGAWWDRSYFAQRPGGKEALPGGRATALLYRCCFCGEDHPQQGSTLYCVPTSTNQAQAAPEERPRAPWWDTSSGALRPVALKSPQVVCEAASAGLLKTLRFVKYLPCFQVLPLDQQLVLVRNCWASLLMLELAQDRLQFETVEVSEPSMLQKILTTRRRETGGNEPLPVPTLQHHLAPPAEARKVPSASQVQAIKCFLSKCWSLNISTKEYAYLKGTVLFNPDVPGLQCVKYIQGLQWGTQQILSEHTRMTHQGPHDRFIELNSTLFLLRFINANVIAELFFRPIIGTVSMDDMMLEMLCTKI

[4] = molecular target: Heat shock protein HSP 90-alpha (Homo sapiens, UniProt P07900); format: functional, organism-based

Chain of Albumin (P02769 whole entry, the tested form may be a part): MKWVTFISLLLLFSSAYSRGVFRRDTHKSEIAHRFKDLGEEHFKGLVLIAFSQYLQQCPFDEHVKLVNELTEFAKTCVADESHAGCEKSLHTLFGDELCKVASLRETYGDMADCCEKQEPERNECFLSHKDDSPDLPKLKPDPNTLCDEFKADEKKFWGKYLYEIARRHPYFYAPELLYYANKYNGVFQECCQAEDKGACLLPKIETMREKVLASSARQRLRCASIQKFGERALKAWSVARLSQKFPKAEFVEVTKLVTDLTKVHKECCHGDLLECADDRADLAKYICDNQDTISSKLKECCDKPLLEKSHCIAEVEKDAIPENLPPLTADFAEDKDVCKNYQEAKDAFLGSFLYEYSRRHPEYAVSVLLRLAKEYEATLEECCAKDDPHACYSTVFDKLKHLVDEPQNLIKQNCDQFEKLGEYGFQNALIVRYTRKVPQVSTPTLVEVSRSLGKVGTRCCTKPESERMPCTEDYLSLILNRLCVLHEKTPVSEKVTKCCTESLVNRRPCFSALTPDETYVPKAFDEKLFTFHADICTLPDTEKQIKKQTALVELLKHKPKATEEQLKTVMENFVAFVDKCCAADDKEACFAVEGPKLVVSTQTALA

IC50 (Albumin): > 94.1 µM (inactive)
SMILES: CCn1c(C)nc2cc(C(=O)NNC(=S)NC(=O)c3ccccc3)ccc21

IC50 [1]: 5.65 µM (active)
IC50 (Albumin): > 94 µM (inactive)
AC50 (Caspase-6): 5.77 µM (active)
SMILES: O=C(O)c1cnc2c([N+](=O)[O-])cccc2c1O

SMILES: N#C[C@H]1[C@@H](c2ccc(C3=CCCCC3)cc2)[C@@H](CO)N1C(=O)Nc1ccccc1F
AC50 [2]: 15.8 µM (active)

SMILES: COc1cccc(S(=O)(=O)N2CCCCN3[C@H](CO)[C@H](c4ccc(C#CCC(C)C)cc4)[C@H]3C2)c1
AC50 [2]: 2.41 µM (active)

SMILES: Cc1ccc(OCC(=O)NC(=S)Nc2cccc(C)n2)cc1
IC50 (HEK293): > 67.5 µM (inactive)
IC50 [3]: > 67.5 µM (inactive)

AC50 [4]: 7.55 µM (active)
SMILES: Nc1cccc(Oc2c(F)c(F)c(Oc3cccc(N)c3)c(F)c2F)c1
